In ChEMBL document CHEMBL3351880, “Unexpected DNA affinity and sequence selectivity through core rigidity in guanidinium-based minor groove binders” (J Med Chem, 2014):
The source made the active and inactive calls. The calls are words filed in the database; no cut-off is given here.

What was measured:
[1] = Binding affinity to AATT DNA hairpin sequence (unknown origin) by SPR assay
[2] = Binding affinity to (AT)4 DNA hairpin sequence (unknown origin) by SPR assay
[3] = Binding affinity to (CG)4 DNA hairpin sequence (unknown origin) by SPR assay
[4] = Selectivity index, ratio of binding affinity to (AT)4 DNA hairpin sequence (unknown origin) to binding affinity to AATT DNA hairpin sequence (unknown origin)
Salmonidae [5] = experiment: Binding affinity to salmon sperm DNA assessed as increase in DNA thermal melting temperature at 15 uM spectrophotometry
[6] = Binding affinity to poly(dA.dT)2 oligonucleotide DNA (unknown origin) assessed as increase in DNA thermal melting temperature at 15 uM spectrophotometry
[7] = Binding affinity to poly(dA).poly(dT) oligonucleotide DNA (unknown origin) assessed as increase in DNA thermal melting temperature at 15 uM spectrophotometry
Salmonidae [8] = experiment: Binding affinity to salmon sperm DNA assessed as change in ICD signals by CD spectroscopy
[9] = Binding affinity to poly(dA.dT)2 oligonucleotide DNA (unknown origin) assessed as change in ICD signals by CD spectroscopy
Salmonidae [10] = experiment: Binding affinity to salmon sperm DNA by UV spectroscopy
[11] = Binding affinity to poly(dA.dT)2 oligonucleotide DNA (unknown origin) by UV spectroscopy
[12] = Binding affinity to poly(dG.dC)2 oligonucleotide DNA (unknown origin) by UV spectroscopy
[13] = Binding affinity to poly(dG.dC)2 oligonucleotide DNA (unknown origin) assessed as change in ICD signals by CD spectroscopy

Row | SMILES | K [1] [×10⁵ /M] | K [2] [×10⁵ /M] | K [3] [×10⁵ /M] | Selectivity Index [4] | ΔTm (Salmonidae [5]) [°C] | ΔTm [6] [°C] | ΔTm [7] [°C] | Activity (Salmonidae [8]) | Activity [9] | K (Salmonidae [10]) [×10⁵ /M] | K [11] [×10⁵ /M] | K [12] [×10⁵ /M] | Activity [13]
1 | c1cc(NC2=NCCN2)cc(Oc2ccc(NC3=NCCN3)cc2)c1 | < 1 | 1.5 | < 1 | < 2.4 |  |  |  |  |  |  |  |  | 
2 | c1cc2c(cc1NC1=NCCN1)Cc1ccc(NC3=NCCN3)cc1C2 | 2.7 | 5.1 | 5.5 | < 2.4 | 20 | 1 | 12 | inactive | inactive |  |  |  | 
3 | c1cc(C2CCN(c3ccc(NC4=NCCN4)cc3)CC2)ccc1NC1=NCCN1 | 1.1 | 1.4 | 1.5 | < 2.4 |  |  |  |  |  |  |  |  | 
4 | c1cc2c(cc1NC1=NCCN1)Cc1ccc(NC3=NCCN3)cc1-2 | 15 | 36.2 | 6.5 | < 2.4 | 9 | 26 | 31 | Active | Active | 1.9 | 14 | 9.2 | 
5 | c1cc(NC2=NCCN2)ccc1CCc1ccc(NC2=NCCN2)cc1 | < 1 | 1 | < 1 | < 2.4 |  |  |  |  |  |  |  |  | 

More lines, now with the values ahead:

Row | K [1] [×10⁵ /M] | K [2] [×10⁵ /M] | K [3] [×10⁵ /M] | Selectivity Index [4] | ΔTm (Salmonidae [5]) [°C] | ΔTm [6] [°C] | ΔTm [7] [°C] | Activity (Salmonidae [8]) | Activity [9] | K (Salmonidae [10]) [×10⁵ /M] | K [11] [×10⁵ /M] | K [12] [×10⁵ /M] | Activity [13] | SMILES
6 |  |  |  |  | 4 | -3 | 4 | inactive | inactive |  |  |  |  | N=C(N)Nc1ccc2c(c1)Cc1ccc(NC(=N)N)cc1C2
7 | 1.6 | 3.2 | 2.5 | < 2.4 |  |  |  |  |  |  |  |  |  | c1cc(NC2=NCCN2)cc(Sc2ccc(NC3=NCCN3)cc2)c1
8 | 5.7 | 12.2 | 6.5 | < 2.4 |  |  |  |  |  |  |  |  |  | Nc1ccc2cc3ccc(N)cc3nc2c1
9 |  |  |  |  | 4 | 22 | 20 | Active | Active |  |  |  | Active | N=C(N)Nc1ccc2c(c1)Cc1ccc(NC3=NCCN3)cc1-2
